Key:
[1] = humans, cited from earlier work
[2] = system: spontaneously hypertensive rats; assay: Hypotensive effects in the spontaneous hypertensive rat model (Cerep); assay type: in vivo; details: oral administration, 10 mg/kg, 8 rats per group, over 8 h
Description: Hypotensive effects in the spontaneous hypertensive rat model. Effects of the products of examples 7, 9, 12, 18, 27 and 30 are tested by oral administration to spontaneously hypertensive rats at Cerep, using essentially the procedure of Bazil M K et. al., J. Cardiovasc. Pharmacol. 1993 22: 897 and a sample size of 8 rats per group.

Compound | reduction in blood pressure [2] | further results
CN1CC(=O)N2[C@H](c3ccc4c(c3)OCO4)c3[nH]c4ccccc4c3C[C@@H]2C1=O [Compound 1, (6R,12aR)-6-(1,3-benzodioxol-5-yl)-2-methyl-1,2,3,4,6,7,12,12a-octahydropyrazino[1′,2′:1,6]pyrido[3,4-b]indole-1,4-dione] | – | half-life and exposure (AUC) when dosed concurrently with CYP3A4 inhibitors ([1]; co-dosing with inhibitors of CYP3A4): clinically meaningful increases; absorption following oral administration ([1]; oral): well absorbed; amount excreted unchanged ([1]; oral): only a minor amount
[2H]C([2H])([2H])N1CC(=O)N2[C@H](c3ccc4c(c3)OC(F)(F)O4)c3[nH]c4ccccc4c3C[C@@H]2C1=O [Example 7, (6R,12aR)-6-(2,2-Difluorobenzo[d]-1,3-dioxol-5-yl)-1,2,3,4,6,7,12,12a-octahydropyrazino[1′,2′:1,6]pyrido[3,4-b]indole-2-trideuteromethyl-1,4-dione] | significant reductions in blood pressure sustained over 8 h | –
[2H]c1cc2c(cc1[C@@H]1c3[nH]c4ccccc4c3C[C@@H]3C(=O)N(C)CC(=O)N13)OC(F)(F)O2 [Example 9, (6R,12aR)-6-(6-Deutero-2,2-difluorobenzo[d]-1,3-dioxol-5-yl)-2-methyl-1,2,3,4,6,7,12,12a-octahydropyrazino[1′,2′:1,6]pyrido[3,4-b]indole-1,4-dione] | significant reductions in blood pressure sustained over 8 h | –
[2H][C@@]1(c2ccc3c(c2)OC(F)(F)O3)c2[nH]c3ccccc3c2C[C@@H]2C(=O)N(C)CC(=O)N21 [Example 12, (6R,12aR)-6-Deutero-6-(2,2-difluorobenzo[d]-1,3-dioxol-5-yl)2-methyl-1,2,3,4,6,7,12,12a-octahydropyrazino[1′,2′:1,6]pyrido[3,4-b]indole-1,4-dione] | significant reductions in blood pressure sustained over 8 h | –
CN1CC(=O)N2[C@H](c3ccc4c(c3)OC(F)(F)O4)c3[nH]c4ccccc4c3C[C@@H]2C1=O [Example 18, (6R,12aR)-6-(2,2-Difluorobenzo[d]-1,3-dioxol-5-yl)-1,2,3,4,6,7,12,12a-octahydropyrazino[1′,2′:1,6]pyrido[3,4-b]indole-2-methyl-1,4-dione] | significant reductions in blood pressure sustained over 8 h | –
[2H]C1([2H])Oc2ccc([C@@H]3c4[nH]c5ccccc5c4C[C@@H]4C(=O)N(C)CC(=O)N34)cc2O1 [Example 27, (6R,12aR)-6-(2,2-dideuterobenzo[d]-1,3-dioxol-5-yl)-2-methyl-1,2,3,4,6,7,12,12a-octahydropyrazino[1′,2′:1,6]pyrido[3,4-b]indole-1,4-dione] | significant reductions in blood pressure sustained over 8 h | –
[2H]C1([2H])Oc2ccc([C@@H]3c4[nH]c5ccccc5c4C[C@@H]4C(=O)N(C([2H])([2H])[2H])CC(=O)N34)cc2O1 [Example 30, (6R,12aR)-6-(2,2-dideuterobenzo[d]-1,3-dioxol-5-yl)-1,2,3,4,6,7,12,12a-octahydropyrazino[1′,2′:1,6]pyrido[3,4-b]indole-2-trideuteromethyl-1,4-dione] | significant reductions in blood pressure sustained over 8 h | –
